Laboratory results: PMC7158045 (BMC Plant Biology, 2020)

Tests used:
Test in all cases: biochemical
ZmDRIK1-K217-P492 = target: T1, ZmDRIK1-K217-P492 (Zea mays, UniProt C0P4K9); settings: read-out: dTm B, sheet ZmDRIK1-K217-P492;; DSF, Boltzmann fit, 0.1% DMSO
T1 construct: kinase domain, K217-P492
T1 sequence (C0P4K9 1-514): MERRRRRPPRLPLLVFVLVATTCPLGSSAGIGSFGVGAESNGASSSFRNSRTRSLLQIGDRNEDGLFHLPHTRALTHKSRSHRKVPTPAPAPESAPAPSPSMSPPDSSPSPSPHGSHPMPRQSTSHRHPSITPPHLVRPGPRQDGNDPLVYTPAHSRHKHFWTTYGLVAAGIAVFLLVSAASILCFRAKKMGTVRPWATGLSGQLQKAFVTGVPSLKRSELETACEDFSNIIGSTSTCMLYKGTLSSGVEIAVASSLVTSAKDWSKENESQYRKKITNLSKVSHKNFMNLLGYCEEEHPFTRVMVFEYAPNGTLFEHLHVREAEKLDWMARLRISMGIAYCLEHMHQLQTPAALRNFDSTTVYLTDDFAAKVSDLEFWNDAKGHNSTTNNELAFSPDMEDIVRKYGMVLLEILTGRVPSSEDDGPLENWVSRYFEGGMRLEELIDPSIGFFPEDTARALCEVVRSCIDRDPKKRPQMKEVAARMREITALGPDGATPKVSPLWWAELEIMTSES

ZmDRIK1-R187-P492 = target: T2, ZmDRIK1-R187-P492 (Zea mays, UniProt C0P4K9); settings: read-out: dTm B, DSF, Boltzmann fit, 0.1% DMSO
T2 construct: kinase domain, R187-P492
T2 sequence (C0P4K9 1-514): T1 sequence (C0P4K9 1-514)

ZmDRIK1-K217-S514 = target: T3, ZmDRIK1-K217-S514 (Zea mays, UniProt C0P4K9); settings: read-out: dTm B, sheet ZmDRIK1-K217-S514;; DSF, Boltzmann fit, 0.1% DMSO
T3 construct: kinase domain, K217-S514
T3 sequence (C0P4K9 1-514): T1 sequence (C0P4K9 1-514)

[1] = target: T4, ZmDRIK1 (DROUGHT RESPONSIVE INACTIVE KINASE 1), kinase domain (Zea mays, UniProt C0P4K9); settings: read-out: dTm B, sheet ZmDRIK1-R187-S514;; DSF, Boltzmann fit, 0.1% DMSO
T4 construct: gene ZEAMMB73_Zm00001d028770; ZmDRIK1-KD R187-S514 (kinase domain)
T4 sequence (C0P4K9 187-514): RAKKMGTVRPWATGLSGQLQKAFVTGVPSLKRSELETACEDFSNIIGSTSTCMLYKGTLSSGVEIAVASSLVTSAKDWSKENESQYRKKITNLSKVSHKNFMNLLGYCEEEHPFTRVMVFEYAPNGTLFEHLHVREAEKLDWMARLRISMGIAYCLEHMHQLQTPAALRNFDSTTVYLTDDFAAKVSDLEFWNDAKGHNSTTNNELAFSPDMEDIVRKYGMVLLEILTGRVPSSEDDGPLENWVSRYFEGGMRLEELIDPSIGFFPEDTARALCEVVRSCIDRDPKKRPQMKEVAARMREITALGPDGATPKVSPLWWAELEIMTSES

| ΔTm at 10 µM (ZmDRIK1-K217-P492) | ΔTm at 10 µM (ZmDRIK1-R187-P492) | ΔTm at 10 µM (ZmDRIK1-K217-S514) | ΔTm at 10 µM [1] | SMILES |
| --- | --- | --- | --- | --- |
| -1.03 °C | -0.485 °C | -0.353 °C | -0.785 °C | O=C(O)c1ccc(-c2c[nH]c3ncc(-c4ccccc4)cc23)cc1C1CCCC1 [GSK650394] |
| -1.08 °C | -0.153 °C | -0.204 °C | -0.678 °C | CCn1c(-c2nonc2N)nc2c(C#CC(C)(C)O)ncc(OC[C@H]3CCCNC3)c21 [GSK690693] |
| -0.796 °C | -0.283 °C | -0.279 °C | -0.862 °C | O=C1NC(=O)/C(=C/c2ccc3nccc(-c4ccncc4)c3c2)S1 [GSK1059615] |
| -0.636 °C | -0.4 °C | -0.431 °C | -0.8 °C | CNc1nc(-c2ccc3c(N)n[nH]c3c2)cc(N2C[C@@H](C(=O)NC3CCCCC3)CC[C@H]2C)n1 [GSK2334470] |
| -0.98 °C | -0.37 °C | -0.699 °C | -0.589 °C | Cc1c(Cn2c(C)nc3c(C(=O)O)cc(N4CCOCC4)cc32)cccc1C(F)(F)F [GSK2636771] |
| -4.57 °C | -0.305 °C | 0.363 °C | -1.61 °C | Cc1ccc(C(=O)Nc2ccc(CN3CCN(C)CC3)c(C(F)(F)F)c2)cc1C#Cc1cnc2[nH]ncc2c1 [GZD824] |
| -0.694 °C | -0.238 °C | -0.242 °C | -0.877 °C | COc1ccc(S(=O)(=O)N(C(C)=O)c2ccccc2/C=C/c2cc[n+]([O-])cc2)cc1 [HMN-214] |
| -0.326 °C | -0.247 °C | -0.361 °C | -0.566 °C | CCOC(=O)c1cnc2ccc(-c3cncc(NS(=O)(=O)c4ccccc4)c3)cn12 [HS-173] |
| -1.43 °C | -0.527 °C | -0.628 °C | -0.881 °C | Cc1[nH]c2ccccc2c1C1=C(NCCc2ccc(F)cc2)C(=O)N(C)C1=O [IM-12] |
| -15.1 °C | -15.4 °C | -15 °C | -20.6 °C | Oc1ccc2ccccc2c1SSc1c(O)ccc2ccccc12 [IPA-3] |
| -0.924 °C | -0.0807 °C | -0.319 °C | -0.794 °C | Nc1nc(Nc2ccc(S(N)(=O)=O)cc2)nn1C(=O)c1c(F)cccc1F [JNJ-7706621] |
| -1 °C | -0.343 °C | -0.499 °C | -0.758 °C | Cn1cc(-c2ccc3nnc(C(F)(F)c4ccc5ncccc5c4)n3n2)cn1 [JNJ-38877605] |
| -1.79 °C | -1.15 °C | -0.945 °C | -1.39 °C | CN([C@@H](Cc1ccc(OS(=O)(=O)c2cccc3cnccc23)cc1)C(=O)N1CCN(c2ccccc2)CC1)S(=O)(=O)c1cccc2cnccc12 [KN-62] |

Continued, compound first:

| SMILES | ΔTm at 10 µM (ZmDRIK1-K217-P492) | ΔTm at 10 µM (ZmDRIK1-R187-P492) | ΔTm at 10 µM (ZmDRIK1-K217-S514) | ΔTm at 10 µM [1] |
| --- | --- | --- | --- | --- |
| CNC(=O)c1c(F)cccc1Nc1nc(Nc2cc3c(ccn3C(=O)CN(C)C)cc2OC)nc2[nH]ccc12 [GSK1838705A] | -0.578 °C | -0.292 °C | -0.398 °C | -0.961 °C |
| COc1ncc(-c2ccc3nccc(-c4ccnnc4)c3c2)cc1NS(=O)(=O)c1ccc(F)cc1F [GSK2126458 (GSK458)] | -1.03 °C | -0.322 °C | -0.505 °C | -0.808 °C |
| O=C1Nc2ccc(I)cc2/C1=C/c1cc(Br)c(O)c(Br)c1 [GW5074] | -0.0461 °C | -0.306 °C | 0.341 °C | -0.178 °C |
| COc1ccc2c(c1)c(C1=C(c3c[nH]c4ccccc34)C(=O)NC1=O)cn2CCCN(C)C [Go 6983] | -1.22 °C | -0.26 °C | -0.364 °C | -0.633 °C |
| CN1CCN(C2CCN(C(=O)Nc3cc(Oc4ccc(NC(=O)C5(C(=O)Nc6ccc(F)cc6)CC5)c(F)c4)ccn3)CC2)CC1 [Golvatinib (E7050)] | -0.473 °C | -0.232 °C | -0.278 °C | -0.382 °C |
| O=S(=O)(NCCNC/C=C/c1ccc(Br)cc1)c1cccc2cnccc12 [H 89 2HCl] | -0.68 °C | -0.178 °C | -0.188 °C | -0.703 °C |
| Cc1cc(Nc2ncnc3ccc(-c4ccc(CNCCS(C)(=O)=O)o4)cc23)ccc1Oc1ccn2ncnc2c1 [HER2-Inhibitor-1] | -0.972 °C | 0.197 °C | 0.102 °C | -0.782 °C |
| CCS(=O)(=O)Nc1ccc2c(c1)/C(=C(/Nc1ccc(CN3CCCCC3)cc1)c1ccccc1)C(=O)N2 [Hesperadin] | 0.108 °C | -0.086 °C | -0.308 °C | -0.801 °C |
| C=CCc1ccc(O)c(-c2ccc(O)c(CC=C)c2)c1 [Honokiol] | -1.49 °C | -0.457 °C | -0.593 °C | -0.751 °C |
| O=C(c1ccc(Nc2nccc(-c3cc4ccccc4s3)n2)cc1)N1CCC(N2CCCC2)CC1 [IKK-16 (IKK Inhibitor VII)] | -0.786 °C | 0.0892 °C | 0.121 °C | -0.0967 °C |
| O=C(Nc1cc(C(F)(F)F)cc(C(F)(F)F)c1)c1cc(Cl)ccc1O [IMD 0354] | 0.526 °C | 0.639 °C | 1.2 °C | -0.239 °C |
| CC(C)n1nc(-c2ccc3oc(N)nc3c2)c2c(N)ncnc21 [INK 128 (MLN0128)] | -0.659 °C | -0.315 °C | -0.433 °C | -0.628 °C |
| C[C@H](Nc1ncnc2nc[nH]c12)c1cc2cccc(Cl)c2c(=O)n1-c1ccccc1 [IPI-145 (INK1197)] | -0.86 °C | -0.495 °C | -0.374 °C | -1.16 °C |
| C=CC(=O)N1CCC[C@@H](n2nc(-c3ccc(Oc4ccccc4)cc3)c3c(N)ncnc32)C1 [Ibrutinib (PCI-32765)] | -1.14 °C | -0.476 °C | -0.359 °C | -0.597 °C |
| C#Cc1cccc(Nc2ncnc3cc4c(cc23)OCCOCCOCCO4)c1 [Icotinib] | -1.1 °C | -0.388 °C | -0.34 °C | -0.618 °C |
| O=C1Nc2ccccc2/C1=C1/Nc2ccccc2C1=O [Indirubin] | -1.26 °C | -0.337 °C | -0.386 °C | -0.784 °C |
| N#Cc1c(NC(=O)c2cccc3ccccc23)sc2c1CCCC2 [JNK Inhibitor IX] | -1.09 °C | -0.365 °C | -0.601 °C | -1.05 °C |
| Cc1cc(NC(=O)c2cccc(NC(=O)/C=C/CN(C)C)c2)ccc1Nc1nccc(-c2cccnc2)n1 [JNK-IN-8] | -1.16 °C | -0.326 °C | -0.306 °C | -0.726 °C |
| C=CC(=O)N1CCN(c2nc(=O)n(-c3c(C)ccnc3C(C)C)c3nc(-c4c(O)cccc4F)c(F)cc23)[C@@H](C)C1 [K-Ras(G12C) inhibitor 9] | -0.935 °C | -0.298 °C | -0.321 °C | -0.658 °C |
| COc1ccc(S(=O)(=O)N(CCO)c2ccccc2CN(C)C/C=C/c2ccc(Cl)cc2)cc1 [KN-93 Phosphate] | -4.4 °C | -1.06 °C | -0.811 °C | -0.375 °C |
| CCCNC(=O)Nc1ccc(Oc2ncnc3cc(OC)c(OC)cc23)cc1Cl [KRN 633] | -0.52 °C | -0.332 °C | -0.102 °C | -1.02 °C |
